Results from US9833455B2, “Preparation and methods of use for ortho-aryl 5-membered heteroaryl-carboxamide containing multi-targeted kinase inhibitors” (Spacefill Enterprises LLC, priority 2011, dated 2017).
pIC50: −log10 of the molar value. Where two headings read alike, the source gives them in different places. Each block holds one compound with its values, some of them ahead of it.

Legend:
MKNK2 = biological target: T1, MKNK2 (Homo sapiens, UniProt Q9HBH9); settings: 1 μM, duplicate, without preincubation; cited from earlier work
T1 construct: literature Ambit Biosciences

MET = MET (Homo sapiens, UniProt P08581); experiment: Nanosyn kinase profiling, % inhibition; format: biochemical; settings: panel of 230 kinases
Method: (§1) “Inhibiting kinase activity” means to decrease the production of an phosphor-peptide by a particular kinase that can be separated by analytical techniques. For example, a comprehensive platform of kinase, protease, phosphatase and epigenetic assays that utilizes cutting-edge microfluidics and informatics tools to provide accurate and rapid results. Profiling data in this application were determined using these techniques at Nanosyn Inc. IC50 data were provided by Reaction Biology Inc using a P33 radiolabeled kinase assay.
(§2) A total of 15 new inhibitors were designed, prepared, and evaluated against a panel of 29 selected kinases in order to explore the applicability, SAR trends, and the tunability of this scaffold that could be imposed but this unique geometry, Table 21. Inhibitors I-1 to 1-12 all retained the 2-CF3-5-(4-F-phenyl) imidazole-4-carboxamide scaffold previously described (Deitrich, 2010), but explored different Hinge-Gatekeeper Motifs (HGM).
(§3) More modest activity for Aurora-A, FLT-1/4, KDR, KIT, PDGFRs was accompanied by better activity for B-Raf mutant and wild-type forms, Modest inhibition of MEK-1, BTK, c-Met, RET, and RON was also observed. […] Moreover, the observed inhibition of MEK-1 with 1-12 and TYK2 with I-6 represents additional activities against kinases for which no type-II inhibitors have been reported to date. […] To further evaluate the scope of inhibition, I-6 was evaluated against a larger panel of 230 kinases, Table-22.

BRAF [1] = biological target: T2, BRAF (Homo sapiens, UniProt P15056); experiment: Nanosyn kinase profiling, % inhibition; format: biochemical; settings: panel of 230 kinases
T2 construct: literature Ambit Biosciences
Method: as §1, §2, §3

RON = RON (Homo sapiens, UniProt Q04912); experiment: Nanosyn kinase profiling, % inhibition; format: biochemical; settings: panel of 230 kinases
Method: as §1, §2, §3

KIT = KIT (Homo sapiens, UniProt P10721); experiment: Nanosyn kinase profiling, % inhibition; format: biochemical; settings: panel of 230 kinases
Method: as §1, §2, §3

RET = RET (Homo sapiens, UniProt P07949); experiment: Nanosyn kinase profiling, % inhibition; format: biochemical; settings: panel of 230 kinases
Method: as §1, §2, §3

PDGFR-β = PDGFR-β (Homo sapiens, UniProt P09619); experiment: Nanosyn kinase profiling, % inhibition; format: biochemical; settings: panel of 230 kinases
Method: as §1, §2, §3

KDR = KDR (Homo sapiens, UniProt P35968); experiment: Nanosyn kinase profiling, % inhibition; format: biochemical; settings: panel of 230 kinases
Method: as §1, §2, §3

FLT4 = FLT4 (Homo sapiens, UniProt P35916); experiment: Nanosyn kinase profiling, % inhibition; format: biochemical; settings: panel of 230 kinases
Method: as §1, §2, §3

FLT3 = FLT3 (Homo sapiens, UniProt P36888); experiment: Nanosyn kinase profiling, % inhibition; format: biochemical; settings: panel of 230 kinases
Method: as §1, §2, §3

FMS [2] = biological target: T3, FMS (Homo sapiens, UniProt P07333); experiment: Nanosyn kinase profiling, % inhibition; format: biochemical; settings: panel of 230 kinases
Method: as §1, §2, §3

P38-α = P38-α (Homo sapiens, UniProt Q16539); experiment: Nanosyn kinase profiling, % inhibition; format: biochemical; settings: panel of 230 kinases
Method: as §1, §2, §3

BRAF [3] = biological target: T2, BRAF; experiment: Reaction Biology P33 radiolabeled kinase assay, IC50 and time dependence; format: biochemical; settings: for pIC50: ATP 10 uM, read-out: Compound IC50* BRAF
Method: as §1
(§4) The observation of potency and isoform selectivity with time-dependency for PI3K-γ appears to be unprecedented in the literature. In addition, these activities combined with inhibition of p38-α, Raf-1, DDR and CSF-1R, would be complimentary and potentially synergistic activities for both the treatment of certain inflammation based conditions and cancers.

FMS [4] = biological target: T3, FMS; experiment: as above; format: biochemical; settings: for pIC50: ATP 10 uM, read-out: Compound IC50* FMS
Method: as §1, §4

Aurora A = biological target: T4, Aurora A (Homo sapiens, UniProt O14965); experiment: as above; format: biochemical; settings: for pIC50: ATP 10 uM, read-out: Compound IC50* Aurora A
T4 construct: purchased Reaction Biology Inc (contract assay)
T4 sequence (O14965 1-403): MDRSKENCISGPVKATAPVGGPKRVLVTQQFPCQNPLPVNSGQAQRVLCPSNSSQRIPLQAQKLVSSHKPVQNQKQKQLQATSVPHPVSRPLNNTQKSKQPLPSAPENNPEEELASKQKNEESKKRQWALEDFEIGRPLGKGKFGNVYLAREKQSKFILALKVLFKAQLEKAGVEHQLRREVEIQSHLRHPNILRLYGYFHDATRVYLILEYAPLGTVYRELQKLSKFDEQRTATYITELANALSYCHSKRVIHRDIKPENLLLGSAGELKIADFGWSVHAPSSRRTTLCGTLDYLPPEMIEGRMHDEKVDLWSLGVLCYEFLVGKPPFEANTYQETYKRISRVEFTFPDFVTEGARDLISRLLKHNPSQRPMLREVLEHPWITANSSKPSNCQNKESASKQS
Method: as §1, §4

PI3K-δ = biological target: T5, PI3K-δ (Homo sapiens, UniProt O00329); experiment: as above; format: biochemical; settings: for pIC50: ATP 10 uM, read-out: Compound IC50* PI3K-δ
T5 construct: purchased Reaction Biology Inc (contract assay)
Method: as §1, §4

ARAF = biological target: T6, ARAF (Homo sapiens, UniProt P10398); experiment: as above; format: biochemical; settings: for pIC50: ATP 10 uM, read-out: Compound IC50* ARAF
T6 construct: purchased Reaction Biology Inc (contract assay)
T6 sequence (P10398 1-606): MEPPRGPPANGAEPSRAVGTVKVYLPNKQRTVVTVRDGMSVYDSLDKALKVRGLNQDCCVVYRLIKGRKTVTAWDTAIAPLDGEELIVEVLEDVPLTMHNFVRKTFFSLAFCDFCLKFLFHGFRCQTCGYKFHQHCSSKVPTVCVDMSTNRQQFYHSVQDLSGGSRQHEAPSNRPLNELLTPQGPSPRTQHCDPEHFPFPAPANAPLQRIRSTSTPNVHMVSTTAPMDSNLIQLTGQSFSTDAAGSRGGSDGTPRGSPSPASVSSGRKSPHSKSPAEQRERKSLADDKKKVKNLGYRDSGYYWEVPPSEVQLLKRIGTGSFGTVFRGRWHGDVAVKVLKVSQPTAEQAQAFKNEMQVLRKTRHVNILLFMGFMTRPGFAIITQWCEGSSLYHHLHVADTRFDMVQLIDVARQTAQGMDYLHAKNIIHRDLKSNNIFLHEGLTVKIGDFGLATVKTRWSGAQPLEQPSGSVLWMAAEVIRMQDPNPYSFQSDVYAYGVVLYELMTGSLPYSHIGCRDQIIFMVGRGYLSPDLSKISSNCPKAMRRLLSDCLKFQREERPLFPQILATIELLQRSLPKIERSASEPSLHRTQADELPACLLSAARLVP
Method: as §1, §4

T2 sequence (P15056 whole entry): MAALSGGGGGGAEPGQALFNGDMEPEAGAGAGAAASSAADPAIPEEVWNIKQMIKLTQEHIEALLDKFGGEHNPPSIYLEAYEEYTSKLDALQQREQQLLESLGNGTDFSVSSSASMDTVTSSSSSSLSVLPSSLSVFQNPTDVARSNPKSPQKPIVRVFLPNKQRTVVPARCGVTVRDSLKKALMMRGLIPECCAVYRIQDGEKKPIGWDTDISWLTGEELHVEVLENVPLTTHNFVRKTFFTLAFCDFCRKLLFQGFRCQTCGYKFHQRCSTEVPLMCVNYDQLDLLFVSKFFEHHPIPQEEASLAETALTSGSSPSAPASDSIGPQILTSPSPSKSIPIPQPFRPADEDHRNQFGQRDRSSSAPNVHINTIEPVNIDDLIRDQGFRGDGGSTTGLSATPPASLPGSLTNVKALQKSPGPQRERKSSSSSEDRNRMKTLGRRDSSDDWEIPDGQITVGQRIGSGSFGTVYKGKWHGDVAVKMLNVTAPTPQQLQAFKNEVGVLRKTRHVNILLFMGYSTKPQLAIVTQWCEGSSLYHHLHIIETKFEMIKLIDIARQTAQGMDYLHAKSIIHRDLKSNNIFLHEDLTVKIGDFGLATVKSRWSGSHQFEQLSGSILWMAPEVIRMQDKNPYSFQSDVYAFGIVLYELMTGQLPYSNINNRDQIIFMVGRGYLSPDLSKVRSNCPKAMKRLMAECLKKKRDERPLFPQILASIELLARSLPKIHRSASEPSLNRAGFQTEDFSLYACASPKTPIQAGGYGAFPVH
T3 sequence (P07333 20-972): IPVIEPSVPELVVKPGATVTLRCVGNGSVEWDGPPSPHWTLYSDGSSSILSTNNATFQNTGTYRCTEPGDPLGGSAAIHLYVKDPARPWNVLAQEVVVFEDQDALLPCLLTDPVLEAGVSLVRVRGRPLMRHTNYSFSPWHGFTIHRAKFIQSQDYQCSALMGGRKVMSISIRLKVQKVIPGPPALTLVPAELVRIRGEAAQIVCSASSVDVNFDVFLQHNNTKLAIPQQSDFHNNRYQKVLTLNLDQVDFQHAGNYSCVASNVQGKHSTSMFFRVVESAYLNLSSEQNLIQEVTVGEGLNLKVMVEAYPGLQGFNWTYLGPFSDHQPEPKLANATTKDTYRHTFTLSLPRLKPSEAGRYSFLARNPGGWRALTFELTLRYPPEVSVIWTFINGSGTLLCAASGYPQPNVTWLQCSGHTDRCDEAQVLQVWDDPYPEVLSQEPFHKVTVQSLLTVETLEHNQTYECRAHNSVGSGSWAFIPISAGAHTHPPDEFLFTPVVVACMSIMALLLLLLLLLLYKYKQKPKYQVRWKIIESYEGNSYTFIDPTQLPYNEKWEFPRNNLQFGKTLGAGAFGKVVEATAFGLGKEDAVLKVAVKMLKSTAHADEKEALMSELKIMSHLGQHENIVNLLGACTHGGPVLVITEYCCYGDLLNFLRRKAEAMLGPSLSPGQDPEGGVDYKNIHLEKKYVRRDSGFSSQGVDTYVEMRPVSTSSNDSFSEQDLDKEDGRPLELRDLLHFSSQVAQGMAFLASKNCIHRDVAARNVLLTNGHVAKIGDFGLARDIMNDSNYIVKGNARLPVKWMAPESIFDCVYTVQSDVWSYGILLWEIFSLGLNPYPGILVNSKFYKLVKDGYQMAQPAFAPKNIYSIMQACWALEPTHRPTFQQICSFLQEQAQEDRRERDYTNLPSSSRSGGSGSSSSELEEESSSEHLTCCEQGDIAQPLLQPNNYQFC
T5 sequence (O00329 whole entry): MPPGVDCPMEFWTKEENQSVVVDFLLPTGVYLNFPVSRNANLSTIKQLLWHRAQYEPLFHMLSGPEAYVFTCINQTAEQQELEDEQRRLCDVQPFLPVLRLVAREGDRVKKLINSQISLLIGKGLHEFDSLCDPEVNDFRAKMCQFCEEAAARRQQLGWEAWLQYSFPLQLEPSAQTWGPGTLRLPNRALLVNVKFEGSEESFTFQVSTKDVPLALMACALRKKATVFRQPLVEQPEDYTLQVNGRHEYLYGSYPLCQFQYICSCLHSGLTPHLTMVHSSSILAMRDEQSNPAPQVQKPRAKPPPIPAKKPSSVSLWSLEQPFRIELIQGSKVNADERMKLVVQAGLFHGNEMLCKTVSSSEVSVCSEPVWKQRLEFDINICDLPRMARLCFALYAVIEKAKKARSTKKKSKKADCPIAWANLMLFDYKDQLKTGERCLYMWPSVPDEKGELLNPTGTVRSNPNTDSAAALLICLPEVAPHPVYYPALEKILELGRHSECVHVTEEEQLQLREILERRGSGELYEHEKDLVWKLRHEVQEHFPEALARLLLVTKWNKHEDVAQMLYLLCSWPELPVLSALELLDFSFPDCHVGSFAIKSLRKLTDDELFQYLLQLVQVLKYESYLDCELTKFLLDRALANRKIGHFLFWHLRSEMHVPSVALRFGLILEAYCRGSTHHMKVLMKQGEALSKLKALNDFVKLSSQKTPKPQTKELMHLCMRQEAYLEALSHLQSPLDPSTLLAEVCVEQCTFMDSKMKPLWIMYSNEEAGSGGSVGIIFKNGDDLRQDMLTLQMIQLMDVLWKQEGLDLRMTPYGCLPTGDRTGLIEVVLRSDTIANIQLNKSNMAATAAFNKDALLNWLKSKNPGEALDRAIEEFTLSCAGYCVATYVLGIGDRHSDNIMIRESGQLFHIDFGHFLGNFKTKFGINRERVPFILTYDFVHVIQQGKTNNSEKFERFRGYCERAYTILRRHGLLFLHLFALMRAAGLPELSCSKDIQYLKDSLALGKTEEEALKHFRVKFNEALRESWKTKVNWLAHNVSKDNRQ
T5 sequence (P27986 whole entry partner): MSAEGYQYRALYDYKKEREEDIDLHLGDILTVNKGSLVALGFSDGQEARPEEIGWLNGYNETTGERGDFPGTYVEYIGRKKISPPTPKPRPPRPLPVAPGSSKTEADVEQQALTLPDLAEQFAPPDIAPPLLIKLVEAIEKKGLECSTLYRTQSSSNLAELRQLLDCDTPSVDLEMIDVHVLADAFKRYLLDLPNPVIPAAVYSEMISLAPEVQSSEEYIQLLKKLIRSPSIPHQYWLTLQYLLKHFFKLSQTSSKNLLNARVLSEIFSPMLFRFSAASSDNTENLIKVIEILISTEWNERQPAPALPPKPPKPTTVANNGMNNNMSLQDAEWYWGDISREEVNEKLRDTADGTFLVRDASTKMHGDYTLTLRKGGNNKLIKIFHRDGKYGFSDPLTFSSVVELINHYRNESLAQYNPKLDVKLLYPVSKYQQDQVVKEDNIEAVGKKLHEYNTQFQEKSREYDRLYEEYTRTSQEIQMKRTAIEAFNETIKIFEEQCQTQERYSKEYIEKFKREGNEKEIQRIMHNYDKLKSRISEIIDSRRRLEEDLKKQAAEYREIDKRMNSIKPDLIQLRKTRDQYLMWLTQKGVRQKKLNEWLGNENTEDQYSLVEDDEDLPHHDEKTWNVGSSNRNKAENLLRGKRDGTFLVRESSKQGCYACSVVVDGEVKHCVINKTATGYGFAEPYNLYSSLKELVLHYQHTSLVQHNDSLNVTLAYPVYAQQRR
T1 sequence (Q9HBH9 whole entry): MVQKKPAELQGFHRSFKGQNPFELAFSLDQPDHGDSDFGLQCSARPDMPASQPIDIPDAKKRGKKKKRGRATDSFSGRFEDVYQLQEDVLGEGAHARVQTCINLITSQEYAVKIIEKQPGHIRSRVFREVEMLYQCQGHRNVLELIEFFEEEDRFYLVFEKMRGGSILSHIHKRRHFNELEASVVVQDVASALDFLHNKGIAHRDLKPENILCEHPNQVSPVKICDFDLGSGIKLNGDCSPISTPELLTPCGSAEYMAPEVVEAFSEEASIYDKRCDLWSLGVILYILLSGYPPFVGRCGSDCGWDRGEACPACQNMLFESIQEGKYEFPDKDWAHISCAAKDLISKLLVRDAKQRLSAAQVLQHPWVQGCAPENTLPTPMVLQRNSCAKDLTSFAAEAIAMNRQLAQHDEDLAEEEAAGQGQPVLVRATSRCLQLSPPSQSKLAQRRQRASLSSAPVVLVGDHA
Sequence of PDGFR-β (P09619 33-1106): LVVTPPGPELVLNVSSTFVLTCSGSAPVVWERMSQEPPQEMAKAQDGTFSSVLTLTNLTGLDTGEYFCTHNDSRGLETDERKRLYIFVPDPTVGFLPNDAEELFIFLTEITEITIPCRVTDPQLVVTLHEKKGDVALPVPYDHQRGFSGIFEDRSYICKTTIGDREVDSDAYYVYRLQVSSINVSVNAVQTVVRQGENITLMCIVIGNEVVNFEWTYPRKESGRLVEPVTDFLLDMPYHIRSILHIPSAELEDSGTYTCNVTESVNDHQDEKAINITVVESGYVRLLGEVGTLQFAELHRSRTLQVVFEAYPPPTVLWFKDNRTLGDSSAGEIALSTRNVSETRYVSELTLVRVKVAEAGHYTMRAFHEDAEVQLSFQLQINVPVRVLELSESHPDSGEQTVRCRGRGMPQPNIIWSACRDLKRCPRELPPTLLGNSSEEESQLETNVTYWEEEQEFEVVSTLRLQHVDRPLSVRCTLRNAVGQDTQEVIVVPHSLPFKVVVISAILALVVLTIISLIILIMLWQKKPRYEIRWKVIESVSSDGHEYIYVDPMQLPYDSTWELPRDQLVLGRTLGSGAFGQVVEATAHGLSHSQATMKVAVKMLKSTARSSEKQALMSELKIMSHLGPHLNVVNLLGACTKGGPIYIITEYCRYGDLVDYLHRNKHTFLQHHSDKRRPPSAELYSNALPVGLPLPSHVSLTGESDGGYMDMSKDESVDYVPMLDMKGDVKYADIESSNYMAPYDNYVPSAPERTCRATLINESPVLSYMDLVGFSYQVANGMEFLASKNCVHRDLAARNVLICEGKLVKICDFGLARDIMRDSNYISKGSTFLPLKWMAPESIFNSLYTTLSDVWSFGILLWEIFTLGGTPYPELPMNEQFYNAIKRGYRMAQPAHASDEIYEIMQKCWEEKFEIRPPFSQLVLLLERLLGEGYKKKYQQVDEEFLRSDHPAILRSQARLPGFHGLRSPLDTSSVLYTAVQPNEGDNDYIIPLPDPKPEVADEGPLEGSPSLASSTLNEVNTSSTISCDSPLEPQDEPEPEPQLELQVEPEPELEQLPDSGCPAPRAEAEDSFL

SMILES: Cc1ccc(NC(=O)c2[nH]c(C(F)(F)F)nc2-c2ccc(F)cc2)cc1Nc1ccc2ncn(C)c(=O)c2c1 [KIN-035]
- inhibition of MKNK2 (MKNK2): X (X > 25% @ 1 μM)

- inhibition at 5 µM (MET): ≥ 50%
- inhibition at 5 µM (BRAF [1]): ≥ 50%
- inhibition at 5 µM (RON): ≥ 50%
- inhibition at 5 µM (KIT): ≥ 50%
- inhibition at 5 µM (RET): ≥ 50%
- inhibition at 5 µM (PDGFR-β): ≥ 50%
- inhibition at 5 µM (KDR): ≥ 50%
- inhibition at 5 µM (FLT4): ≥ 50%
- inhibition at 5 µM (FLT3): ≥ 50%
- inhibition at 5 µM (FMS [2]): ≥ 50%
- inhibition at 5 µM (P38-α): ≥ 50%
SMILES: CNC(=O)c1cc(Oc2ccc(NC(=O)c3nc(C(F)(F)F)[nH]c3-c3ccc(F)cc3)cc2)ccn1 [Inhibitor I-6, 4-(4-{[5-(4-Fluoro-phenyl)-2-trifluoromethyl-3H-imidazole-4-carbonyl]-amino}-phenoxy)-pyridine-2-carboxylic acid methylamide]

- Time Dependence Observed? BRAF (BRAF [3]; 15 vs 60 Min preincubation): Yes
- pIC50 (BRAF [3]; preincubation 15 Min): 6.41
- pIC50 (BRAF [3]; preincubation 60 Min): 6.49
- Time Dependence Observed? FMS (FMS [4]; 15 vs 60 Min preincubation): No
- pIC50 (FMS [4]; preincubation 15 Min): 6.66
- pIC50 (FMS [4]; preincubation 60 Min): 6.62
- Time Dependence Observed? Aurora A (Aurora A; 15 vs 60 Min preincubation): No
- pIC50 (Aurora A; preincubation 15 Min): 5.56
- pIC50 (Aurora A; preincubation 60 Min): 5.58
- Time Dependence Observed? PI3K-δ (PI3K-δ; 15 vs 60 Min preincubation): Yes
- pIC50 (PI3K-δ; preincubation 15 Min): 5.50
- pIC50 (PI3K-δ; preincubation 60 Min): 5.95
- Time Dependence Observed? ARAF (ARAF; 15 vs 60 Min preincubation): Yes
- pIC50 (ARAF; preincubation 15 Min): 5.86
- pIC50 (ARAF; preincubation 60 Min): 5.89
SMILES: Cc1ccc(NC(=O)c2nc(S(C)(=O)=O)[nH]c2-c2ccc(F)cc2)cc1Nc1nccc(-c2cccnc2)n1 [Inhibitor I-14, 3-(4-(pyridin-3-yl)-pyrimidinyl-2-yl)amino-4-methyl-analine, 5-(4-Fluorophenyl)-2-(methylsulfonyl)-1H-imidazole-4-carboxamide]
